Experimental data taken from patent US11464749B2, “Bismuth-thiol compositions and methods of use” (Microbion Corporation, priority 2018, dated 2022).
In brackets after ≈: the same amount, converted by molar mass. Several values for one entry are separate records, joined by “and”; a condition that tells them apart may be missing. Equal entries are not always repeated. Where two headings read alike, the source gives them in different places.

Key:
[1] = system: C. tropicalis; assay: Broth microdilution MIC, yeast (Example 11); type: cell-based; details: FLU^R
[2] = system: C. albicans; assay: Broth microdilution MIC, yeast (Example 11); type: cell-based; details: Sensitive
[3] = system: C. parapsilosis; assay: Broth microdilution MIC, yeast (Example 11); type: cell-based
[4] = system: C. parapsilosis; details: C. parapsilosis MMX 2323 (ATCC 22019), cited from earlier work
[5] = system: C. glabrata; assay: Broth microdilution MIC, yeast (Example 11); type: cell-based; details: FLU^R
[6] = system: B. cepacia; assay: FIC checkerboard assay; type: cell-based; details: Burkholderia cepacia, read-out: Drug B MIC
[7] = system: P. aeruginosa; assay: FIC checkerboard assay; type: cell-based; details: Pseudomonas aeruginosa, read-out: Drug B MIC
[8] = system: B. cenocepacia; assay: FIC checkerboard assay; type: cell-based; details: for MIC: Burkholderia cenocepacia, read-out: Drug B MIC
[9] = system: Burkholderia spp.; assay: organism not typed; type: cell-based; details: read-out: Drug B MIC
[10] = Particle size distribution of exposure aerosols (In-Tox Mercer Impactor); details: rat efficacy study exposure atmospheres
[11] = system: S. aureus ATCC 29213; details: control strain ATCC 29213; per CLSI M100-S24 or provided by Microbion; cited from earlier work
[12] = system: B. multivorans (cepacia complex); assay: MIC against CF bacterial strains (Example 5); type: cell-based; details: Burkholderia multivorans, strain BC5b
Description: (§1) A range of CF-isolated strains of Mycobacterium avium and Mycobacterium abscessus were included; which allows for understanding of the activity against non-tubercular Mycobacteria (NTM). Two distinct bismuth-thiol compounds were evaluated, including BisEDT and BisBDT. […] The CF-isolates of greater clinical relevance, including both M abscessus spp. and Burkholderia spp., were both consistently found to be much more susceptible to BisEDT and BisBDT.

[13] = system: B. cepacia (cepacia complex); assay: MIC against CF bacterial strains (Example 5); type: cell-based; details: Burkholderia cepacia, strain BC17
Description: as §1

[14] = system: S. maltophilia; assay: MIC against CF bacterial strains (Example 5); details: Stenotrophomonas maltophilia
[15] = system: B. cenocepacia (B cepacia complex); assay: MIC against CF bacterial strains (Example 5)
[16] = system: P. aeruginosa; assay: MIC against CF bacterial strains (Example 5); details: Pseudomonas aeruginosa
[17] = system: Achromobacter spp.; assay: MIC against CF bacterial strains (Example 5)
[18] = system: M. abscessus complex; assay: MIC against CF bacterial strains (Example 5); type: cell-based, Mycobacterium abscessus; details: Mycobacteroides abscessus, read-out: MIC
Description: as §1

SMILES: C[C@@H]1[C@H](O)[C@@H](C)/C=C/C=C/C=C/C=C/C=C/C=C/C=C/[C@H](O[C@@H]2O[C@H](C)[C@@H](O)[C@H](N)[C@@H]2O)C[C@@H]2O[C@](O)(C[C@@H](O)C[C@@H](O)[C@H](O)CC[C@@H](O)C[C@@H](O)CC(=O)O[C@H]1C)C[C@H](O)[C@H]2C(=O)O [Amphotericin B]
- MIC ([1]; C. tropicalis MMX 7247, 24 hr): 0.5 µg/mL (≈ 0.541 µM)
- MIC ([1]; C. tropicalis MMX 7247, 48 hr): 1 µg/mL (≈ 1.08 µM)
- MIC ([1]; C. tropicalis MMX 7248, 24 hr): 0.5 µg/mL (≈ 0.541 µM)
- MIC ([1]; C. tropicalis MMX 7248, 48 hr): 1 µg/mL (≈ 1.08 µM)
- MIC ([2]; C. albicans MMX 7055, 24 hr): 0.25 µg/mL (≈ 0.271 µM)
- MIC ([2]; C. albicans MMX 7055, 48 hr): 0.5 µg/mL (≈ 0.541 µM)
- MIC ([3]; C. parapsilosis MMX 2323 (ATCC 22019), QC, 24 hr): 0.5 µg/mL (≈ 0.541 µM)
- MIC ([3]; C. parapsilosis MMX 2323 (ATCC 22019), QC, 48 hr): 1 µg/mL (≈ 1.08 µM)
- MIC ([3]; C. parapsilosis MMX 7370, FLU^R, 24 hr): 0.5 µg/mL (≈ 0.541 µM)
- MIC ([3]; C. parapsilosis MMX 7370, FLU^R, 48 hr): 1 µg/mL (≈ 1.08 µM)
- MIC, CLSI QC range ([4]; 48 hr): 0.5 to 4 µg/mL
- MIC ([5]; C. glabrata MMX 7086, 24 hr): 0.5 µg/mL (≈ 0.541 µM)
- MIC ([5]; C. glabrata MMX 7086, 48 hr): 1 µg/mL (≈ 1.08 µM)
- MIC ([5]; C. glabrata MMX 7318, 24 hr): 0.5 µg/mL (≈ 0.541 µM)
- MIC ([5]; C. glabrata MMX 7318, 48 hr): 1 µg/mL (≈ 1.08 µM)

SMILES: NC[C@H]1O[C@H](O[C@H]2[C@H](O)[C@@H](O[C@H]3O[C@H](CO)[C@@H](O)[C@H](N)[C@H]3O)[C@H](N)C[C@@H]2N)[C@H](N)C[C@@H]1O [Tobramycin, reference compound]
- MIC ([6]; B. cepacia 546, Tobramycin alone (checkerboard with BisEDT)): 32 µg/mL
- MIC ([6]; B. cepacia 1793, Tobramycin alone (checkerboard with BisEDT)): 16 µg/mL
- MIC ([7]; P. aeruginosa 6977, Tobramycin alone (checkerboard with BisEDT)): 128 µg/mL
- MIC ([7]; P. aeruginosa 7745, Tobramycin alone (checkerboard with BisEDT)): 0.5 µg/mL
- MIC ([7]; P. aeruginosa 8798, Tobramycin alone (checkerboard with BisEDT)): 0.016 µg/mL
- MIC ([7]; P. aeruginosa 9108, Tobramycin alone (checkerboard with BisEDT)): 0.5 µg/mL
- MIC ([7]; Tobramycin alone, FIC panel with BisEDT, P. aeruginosa 6322): 128 µg/mL
- FICB ([8]; B. cenocepacia 548, FIC of Tobramycin in combination with BisEDT, per checkerboard row): 0.5
- MICB ([8]; B. cenocepacia 548, MIC of Tobramycin in combination with BisEDT, per checkerboard row): 8 µg/mL and 16 µg/mL
- FICB ([8]; B. cenocepacia 813, FIC of Tobramycin in combination with BisEDT, per checkerboard row): 0.5 and 1
- MIC ([8]; B. cenocepacia 548, Tobramycin alone (panel with BisEDT)): 32 µg/mL
- MIC ([8]; B. cenocepacia 813, Tobramycin alone (panel with BisEDT)): 256 µg/mL
- MIC [9]: > 256 µg/mL
- MMAD of exposure aerosol [10]: 2.81 μm

SMILES: OC(Cn1cncn1)(Cn1cncn1)c1ccc(F)cc1F [fluconazole, Fluconazole, reference compound]
- MIC ([1]; Candida tropicalis, 24 h, C. tropicalis MMX 7247, 24 hr, read-out: MIC): 64 µg/mL (≈ 209 µM)
- MIC ([1]; Candida tropicalis, 24 h, C. tropicalis MMX 7248, 24 hr, read-out: MIC): 32 µg/mL (≈ 104 µM)
- MIC ([1]; Candida tropicalis, 24 h, C. tropicalis MMX 7360, 24 hr, read-out: MIC): 64 µg/mL (≈ 209 µM)
- MIC ([1]; Candida tropicalis, 48 h, C. tropicalis MMX 7247, 48 hr, read-out: MIC): > 64 µg/mL
- MIC ([1]; Candida tropicalis, 48 h, C. tropicalis MMX 7248, 48 hr, read-out: MIC): > 64 µg/mL
- MIC ([1]; Candida tropicalis, 48 h, C. tropicalis MMX 7360, 48 hr, read-out: MIC): > 64 µg/mL
- MIC ([2]; Candida albicans, 24 h, C. albicans MMX 7039, 24 hr, read-out: MIC): 0.5 µg/mL (≈ 1.63 µM)
- MIC ([2]; Candida albicans, 24 h, C. albicans MMX 7055, 24 hr, read-out: MIC): 0.25 µg/mL (≈ 0.816 µM)
- MIC ([2]; Candida albicans, 48 h, C. albicans MMX 7039, 48 hr, read-out: MIC): 0.5 µg/mL (≈ 1.63 µM)
- MIC ([2]; Candida albicans, 48 h, C. albicans MMX 7055, 48 hr, read-out: MIC): 0.5 µg/mL (≈ 1.63 µM)
- MIC ([3]; Lodderomyces parapsilosis, 24 h, C. parapsilosis MMX 7370, FLU^R, 24 hr, read-out: MIC (converted)): 32 µg/mL (≈ 104 µM)
- MIC ([3]; Lodderomyces parapsilosis, 24 h, C. parapsilosis MMX 7555, FLU^R, 24 hr, read-out: MIC (converted)): 32 µg/mL (≈ 104 µM)
- MIC ([3]; Lodderomyces parapsilosis, 48 h, C. parapsilosis MMX 7370, FLU^R, 48 hr, read-out: MIC (converted)): 32 µg/mL (≈ 104 µM)
- MIC ([3]; Lodderomyces parapsilosis, 48 h, C. parapsilosis MMX 7555, FLU^R, 48 hr, read-out: MIC (converted)): 64 µg/mL (≈ 209 µM)
- MIC ([3]; Lodderomyces parapsilosis, ATCC22019, 24 h, C. parapsilosis MMX 2323 (ATCC 22019), QC, 24 hr, read-out: MIC (converted)): 2 µg/mL (≈ 6.53 µM)
- MIC ([3]; Lodderomyces parapsilosis, ATCC22019, 48 h, C. parapsilosis MMX 2323 (ATCC 22019), QC, 48 hr, read-out: MIC (converted)): 2 µg/mL (≈ 6.53 µM)
- MIC, CLSI QC range ([4]; 24 hr): 0.5 to 4 µg/mL
- MIC, CLSI QC range ([4]; 48 hr): 1 to 4 µg/mL
- MIC ([5]; Nakaseomyces glabratus, 24 h, C. glabrata MMX 7086, 24 hr, read-out: MIC): 32 µg/mL (≈ 104 µM)
- MIC ([5]; Nakaseomyces glabratus, 24 h, C. glabrata MMX 7318, 24 hr, read-out: MIC): > 64 µg/mL
- MIC ([5]; Nakaseomyces glabratus, 48 h, C. glabrata MMX 7086, 48 hr, read-out: MIC): 64 µg/mL (≈ 209 µM)
- MIC ([5]; Nakaseomyces glabratus, 48 h, C. glabrata MMX 7318, 48 hr, read-out: MIC): > 64 µg/mL

SMILES: NCC[C@H](O)C(=O)N[C@@H]1C[C@H](N)[C@@H](O[C@H]2O[C@H](CN)[C@@H](O)[C@H](O)[C@H]2O)[C@H](O)[C@H]1O[C@H]1O[C@H](CO)[C@@H](O)[C@H](N)[C@H]1O [Amikacin, reference compound]
- MIC ([6]; B. cepacia 546, Amikacin alone (checkerboard with BisEDT)): 64 µg/mL
- MIC ([6]; B. cepacia 1793, Amikacin alone (panel with BisEDT)): 32 µg/mL
- Expected MIC: goal (acceptable range) [11]: 2 (1-4) mcg/mL
- MIC [12]: > 64 µg/mL
- MIC [13]: > 64 µg/mL
- MIC ([7]; Amikacin alone, FIC panel with BisEDT, P. aeruginosa 6322): 64 µg/mL
- MIC ([7]; P. aeruginosa 6977, Amikacin alone (checkerboard with BisEDT)): 16 µg/mL
- MIC ([7]; P. aeruginosa 7745, Amikacin alone (checkerboard with BisEDT)): 4 µg/mL
- MIC ([7]; P. aeruginosa 8798, Amikacin alone (checkerboard with BisEDT)): 128 µg/mL
- MIC ([7]; P. aeruginosa 9108, Amikacin alone (checkerboard with BisEDT)): 4 µg/mL
- MIC [14]: 64 µg/mL (≈ 109 µM)
- FICB ([8]; B. cenocepacia 548, FIC of Amikacin in combination with BisEDT, per checkerboard row): 0.25 and 0.5
- FICB ([8]; B. cenocepacia 813, FIC of Amikacin in combination with BisEDT, per checkerboard row): 0.5 and 1
- MIC ([8]; B. cenocepacia 548, Amikacin alone (panel with BisEDT)): 128 µg/mL
- MIC [8]: > 256 µg/mL
- MIC ([15]; Burkholderia cenocepacia): > 64 µg/mL
- MIC ([15]; strain AU197): >64 µg/mL
- MIC [16]: 16 µg/mL (≈ 27.3 µM)
- MIC ([16]; strain AGR14, Multi-drug resistant): > 64 µg/mL
- MIC ([16]; strain MR14, Multi-drug resistant): > 64 µg/mL
- MIC [9]: > 256 µg/mL
- MIC [17]: > 64 µg/mL
- MIC ([17]; Achromobacter): 64 µg/mL (≈ 109 µM)
- MIC ([18]; AMT0130-8, M abscessus/massiliense complex): 16 µg/mL (≈ 27.3 µM)
- MIC ([18]; AMT153-9, M abscessus/massiliense complex): 32 µg/mL (≈ 54.6 µM)
- MIC ([18]; AMT0493-2, M abscessus/massiliense complex, Amikacin resistant): > 64 µg/mL
- MIC ([18]; ATCC19977, ATCC 19977, M abscessus/massiliense complex, Macrolide resistant (inducible)): 8 µg/mL (≈ 13.7 µM)
